Measured values reported in the METLIN SMRT retention time set (Domingo-Almenara et al. 2019).

Test: gradient 5% acetonitrile 3 min, to 50% in 2 min, to 85% in 15 min, held 3 min, 100 µL/min
Conditions: column: Zorbax Extend-C18 2.1 x 50 mm; eluents: water / acetonitrile, 0.1% formic acid
Summary of the method: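 Over 3 months, pure standards in mixtures of ~100 molecules were run by HPLC coupled to a quadrupole time-of-flight mass spectrometer in positive and negative ionization mode. The column was a Zorbax Extend-C18 (2.1 × 50 mm, 1.8 μm) at 100 μL/min, eluted with water and acetonitrile each holding 0.1% formic acid, with 40 μL dead and 900 μL dwell volumes. Retention time was determined from adduct peaks chosen by software and checked manually.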

Row | SMILES | RP-LC retention time
1 | Cc1ccc(CNC(=O)Cn2nc(N3CCCC3)c3ccccc3c2=O)cc1 | 908 s
2 | C#Cc1cccc(Nc2ncnc3cc(OC)c(OCCCCCCC(=O)NO)cc23)c1 | 707 s
3 | Cc1ccc(Cn2c(=O)c(N3CCN(C(=O)C4CCCO4)CC3)nc3cccnc32)cc1 (stereo unspecified) | 998 s
4 | CCN(Cc1cccnc1)C(=O)CN(c1ccc(OC)nc1)S(=O)(=O)c1ccccc1C | 734 s
5 | Cc1ccc(-c2ncc(C(=O)O)c(-c3ccncc3)n2)cc1 | 693 s
6 | COc1ccccc1C1CC(=O)Nc2c(S(=O)(=O)c3ccccc3)csc21 (stereo unspecified) | 946 s
7 | CCOc1ccc(NC(=O)CSC2CCCCC2)cc1 | 975 s
8 | Cn1ncc2c3ccccc3n(CC(=O)N3CCN(Cc4ccccc4)CC3)c2c1=O | 639 s
9 | COc1cccc(-c2nc(Cn3c(=O)c4c(C)cc(C)nc4n(C)c3=O)c(C)o2)c1OC | 1130 s
10 | Cc1cnc(C(=O)N2CCC(c3noc(-c4ccncc4)n3)C2)cn1 (stereo unspecified) | 645 s
11 | CS(=O)(=O)N1CC(C(=O)Nc2ccccc2)C2(CCCCC2)C1 (stereo unspecified) | 875 s
12 | COc1ccc(S(=O)(=O)N(C)CCCC(=O)O)cc1N(C)S(C)(=O)=O | 633 s
13 | CCOC(=O)C1=C(CN(C)Cc2ccccc2)NC(=O)NC1c1cccs1 (stereo unspecified) | 642 s
14 | O=C(NCCc1nc(-c2ccccc2)cs1)C1CC(=O)N(c2n[nH]c3ccccc23)C1 (stereo unspecified) | 740 s
15 | Cc1nc(-c2cc3ccccc3nc2N2CCN(c3ccccc3)CC2)no1 | 666 s
16 | COC(=O)C1C(c2ccccc2)=NN(c2ccccc2)C1C(=O)OC (stereo unspecified) | 1090 s
17 | COc1ccccc1-c1nc(-c2ccc(S(=O)(=O)N3CCC(C(=O)N4CCCC4)CC3)cc2)no1 | 952 s
18 | CC1=C(C(=O)OCCc2ccccc2)C(c2ccc(C)s2)NC(=O)N1 (stereo unspecified) | 859 s

Row | SMILES | RP-LC retention time
19 | COC(=O)c1ccccc1NC(=O)NCc1ccccc1 | 855 s
20 | O=C(Nc1ccc(F)cc1)N1CCCC(Cn2c(C3CC3)nc3cccnc32)C1 (stereo unspecified) | 675 s
21 | Cc1ccc(CNC(=O)CCc2nc3c(C)cccc3c(=O)n2C)cc1C | 892 s
22 | CCc1cc(C2CCCN2C(=O)c2cnn3c(C(F)(F)F)cc(-c4ccco4)nc23)on1 (stereo unspecified) | 870 s
23 | COc1ccc(N2CCN(C(=O)Cn3ccc4c(SCc5ccc(F)cc5)nccc43)CC2)cc1 | 759 s
24 | c1cc2c(cc1-c1noc(-c3ccc4c(c3)OCO4)n1)ncn2CCN1CCCC1 | 634 s
25 | COc1cccc(Cn2c(=O)c3cnc(-c4ccc(C)cc4)nc3n(C)c2=O)c1 | 1250 s
26 | O=C(NC1CCN(c2cc(-c3ccc(F)cc3)[nH]n2)C1)c1ccc2cc[nH]c2c1 (stereo unspecified) | 714 s
27 | Cc1nnc(NC(=O)CN2CCc3nc(NC(=O)c4cnccn4)sc3C2)s1 | 546 s
28 | O=C(Nc1cccc(F)c1)C1CCCN(c2ccc3cc(S(=O)(=O)N4CCCCC4)ccc3n2)C1 (stereo unspecified) | 908 s
29 | O=C(NC1CCN(Cc2ccccc2)CC1)c1c(OCC2CC2)cc(=O)n2c1CCCCC2 | 596 s
30 | COc1cc(NC(=O)N2CCC(N3CCN(Cc4ccccc4)C3=O)CC2)cc(OC)c1 | 804 s
31 | COc1cccc2cc(C(=O)NCc3cccnc3)oc12 | 564 s
32 | O=C(CSCc1ccccc1)Nc1cccc(-c2cn3cccnc3n2)c1 | 640 s
33 | CC(=O)N1c2ccc(S(=O)(=O)N3CCCC3C(=O)Nc3nc4ccc(C)cc4s3)cc2CC1C (stereo unspecified) | 935 s
34 | Cc1ccc(-c2c(C(=O)NCCN3CCOCC3)nc3ccccn23)cc1 | 616 s
35 | CCC(=O)NCc1csc(C2CCCN(C(=O)COc3ccccc3)C2)n1 (stereo unspecified) | 710 s
36 | CCCN1C(=O)c2c(C(=O)Nc3ccccc3Cl)ncn2CC1(C)C(=O)NC1CCCC1 (stereo unspecified) | 822 s
